Measurements taken from ChEMBL document CHEMBL1157883, “Synthesis and biological evaluation of novel 2-arylalkylthio-4-amino-6-benzyl pyrimidines as potent HIV-1 non-nucleoside reverse transcriptase inhibitors” (Bioorg Med Chem Lett, 2010).
pEC50, pIC50: −log10 of the molar value. The source made the active and inactive calls. The rule behind the calls is not given here.

Columns and labels:
[1] = biological target: Human immunodeficiency virus type 1 reverse transcriptase (Human immunodeficiency virus 1) (UniProt Q72547); assay: Inhibition of biotin-dUTP labeled HIV-1 reverse transcriptase at 100 uM after 30 mins colorimetric streptavidin alkaline phosphatase reporter system
[2] = biological target: Human immunodeficiency virus type 1 reverse transcriptase (Human immunodeficiency virus 1, UniProt Q72547); assay: Inhibition of biotin-dUTP labeled HIV-1 reverse transcriptase after 30 mins colorimetric streptavidin alkaline phosphatase reporter system
[3] = biological target: Human immunodeficiency virus type 1 reverse transcriptase (Human immunodeficiency virus 1) (UniProt Q72547); assay: Inhibition of HIV1 reverse transcriptase
[4] = test system: Human immunodeficiency virus 1; assay: Antiviral activity against HIV1 in cell based assay; assay type: functional, organism-based
[5] = test system: Human immunodeficiency virus 1; assay: Antiviral activity against pluri-resistant HIV1 IRLL98 in cell based assay; assay type: functional, organism-based; details: Human immunodeficiency virus 1, IRLL98

inhibition [1] | Structure (SMILES) | pIC50 [2] | ID50 [3] [nM] | pEC50 [4] | pEC50 [5]
inactive | O=c1cc(Cc2ccccc2)nc(SCc2ccccc2)[nH]1 |  |  |  | 
 | Nc1cc(Cc2ccccc2)nc(SCc2ccccc2)n1 | < 4.00 | 26 | > 9.85 | 9.66
inactive | CC(Sc1nc(Cl)cc(Cc2ccccc2)n1)c1ccccc1 (stereo unspecified) |  |  |  | 
 | Cc1cccc(CSc2nc(Cl)cc(Cc3ccccc3)n2)c1 | 4.04 |  |  | 
 | Cc1ccccc1CSc1nc(N)cc(Cc2ccccc2)n1 | 4.52 | 26 | > 9.85 | 9.66
 | CC(Sc1nc(N)cc(Cc2ccccc2)n1)c1ccccc1 (stereo unspecified) | 4.19 | 26 | > 9.85 | 9.66
inactive | Clc1cc(Cc2ccccc2)nc(SCc2ccc3ccccc3c2)n1 |  |  |  | 
 | COc1cccc(CSc2nc(N)cc(Cc3ccccc3)n2)c1 | < 4.00 | 26 | > 9.85 | 9.66
inactive | CC(C)(C)c1ccc(CSc2nc(Cl)cc(Cc3ccccc3)n2)cc1 |  |  |  | 
inactive | Clc1cc(Cc2ccccc2)nc(SCCc2ccccc2)n1 |  |  |  | 
inactive | Cc1ccccc1CSc1nc(Cl)cc(Cc2ccccc2)n1 |  |  |  | 
inactive | COc1cccc(CSc2nc(Cl)cc(Cc3ccccc3)n2)c1 |  |  |  | 
 | Nc1cc(Cc2ccccc2)nc(SCc2ccc3ccccc3c2)n1 | 4.77 | 26 | > 9.85 | 9.66
 | Cc1cccc(CSc2nc(N)cc(Cc3ccccc3)n2)c1 | 4.74 | 26 | > 9.85 | 9.66
 | Clc1cc(Cc2ccccc2)nc(SCc2ccccc2)n1 | < 4.00 |  |  | 
inactive | CC(C)(C)c1ccc(CSc2nc(Cc3ccccc3)cc(=O)[nH]2)cc1 |  |  |  | 
inactive | Clc1cc(Cc2ccccc2)nc(SCCCc2ccccc2)n1 |  |  |  | 
inactive | O=c1cc(Cc2ccccc2)nc(SCc2ccc3ccccc3c2)[nH]1 |  |  |  | 

Structure (SMILES) | inhibition [1] | pIC50 [2] | ID50 [3] [nM] | pEC50 [4] | pEC50 [5]
Nc1cc(Cc2ccccc2)nc(SCCc2ccccc2)n1 | inactive |  |  | > 9.85 | 9.66
CC(C)(C)c1ccc(CSc2nc(N)cc(Cc3ccccc3)n2)cc1 | inactive |  | 26 | > 9.85 | 9.66
Nc1cc(Cc2ccccc2)nc(SCCCc2ccccc2)n1 | inactive |  |  | > 9.85 | 9.66
